Assay results as given in EP0063525A1, “Dibenzazepine tetracyclic derivatives, process for their preparation and pharmaceutical compositions containing them” (CENTRE NATIONAL DE LA RECHERCHE SCIENTIFIQUE (CNRS), priority 1981, dated 1982).
Read-outs that look alike come from different tables or passages of the source.

How the values were obtained:
[1] = acute toxicity in the mouse, intraperitoneal; format: in vivo, Souris; details: mouse, in vivo, ip, voie intrapéritonéale; for LD50 at 48 h: souris femelles, read-out: DL 50; for mortality at 48 h: read-out: Mortalité %
Source text: (§1) Les produits ont été administrés par voie intrapéritonéale à des souris femelles dont le poids variait de 18 à 30 g.
(§2) Les animaux injectés ont été maintenus dans une salle thermostatée, nourris et abreuvés à volonté.
(§3) La mortalité a été relevée à 1 heure, 4 heures, 24 heures et 48 heures.

[2] = test system: souris femelles; assay: acute toxicity in the mouse, intraperitoneal; format: in vivo; details: voie intrapéritonéale; for Mortalité en 1 heure / Mortalité en 48 h. / Mortalité en 48 heures: dead mice of the group
Source text: as §1, §2, §3

[3] = test system: Souris; assay: antireserpine activity: reserpine hypothermia; format: in vivo; details: réserpine 5 mg/kg i.p. 17 h before
Procedure: On note ensuite les températures témoins (réserpine), puis les températures 1, 2, 3 et 4 heures après l'administration des produits étudiés.
Les animaux sont répartis en lots de 4 animaux et reçoivent par voie intrapéritonéale la réserpine à une dose de 5 mg/kg. 17 heures après cette injection, on mesure la température corporelle de l'animal à l'aide d'une sonde thermocouple introduite dans le rectum; chaque lot reçoit ensuite la substance par voie intrapéritonéale. Le lot témoin reçoit la même quantité de solvant et par la même voie. La température corporelle est ensuite mesurée toutes les heures pendant 4 heures.
Les résultats sont rassemblés dans un tableau récapitulatif-où sont indiqués : • - la température moyenne pour chaque lot relevée 17 heures après l'injection de la réserpine, • - la moyenne des variations de température pour chaque lot relevées 1,2, 3 et 4 heures après l'injection de la substance étudiée, • - la somme des variations de températures pendant 4 heures, • - le pourcentage d'augmentation de la température pour chaque produit par rapport aux témoins.

[4] = ip, 4 h, product i.p. 150 mg/kg, read-out: % d'augmentation par rapport aux témoins
[5] = ip, 4 h, product i.p. 50 mg/kg, read-out: % d'augmentation par rapport aux témoins

With `c1ccc(C2=NOC3c4ccccc4Nc4ccccc4C23)cc1` (stereo not shown) [compound 1, phényl-3 trihydro-3a,8,12b (dibenzo [b,f]isoxazolo [4,5-d])azépine] the LD50 at 48 h [1] was > 100 mg/kg, the mortality at 48 h ([1]; 50 mg/kg) was 0% and the mortality at 48 h ([1]; 100 mg/kg) was 0%. The “Mortalité en 1 heure” value ([2]; 50 mg/kg) was 0, the “Mortalité en 48 h.” value ([2]; 50 mg/kg) was 0 and the “Mortalité en 1 heure” value ([2]; 100 mg/kg) was 0. The “Mortalité en 48 h.” value ([2]; 100 mg/kg) was 0, the change in vivo at 15 mg/kg ([3]; ip, 4 h, product i.p. 15 mg/kg, read-out: % d'augmentation par rapport aux témoins) was 45% and the “variation de température T= 2h” value ([3]; product i.p. 15 mg/kg) was “+0,5”. For the same molecule, the “variation de température T=3h” value ([3]; product i.p. 15 mg/kg) was “+0,4” and the “variation de température T=4h” value ([3]; product i.p. 15 mg/kg) was “+0,7”.

In the case of `c1ccc(C2=NN(c3ccccc3)C3c4ccccc4Nc4ccccc4C23)cc1` (stereo not shown) [compound 6, diphényl-1,3 tétrahydro-1,3a,8,12b(dibenzo [b,d]pyrazolo[3,4-d])hazépine], the LD50 at 48 h [1] is reported as > 750 mg/kg, the mortality at 48 h ([1]; 500 mg/kg) is reported as 0% and the mortality at 48 h ([1]; 750 mg/kg) is reported as 0%. For the same molecule, the “Mortalité en 1 heure” value ([2]; 500 mg/kg) was 0, the “Mortalité en 48 h.” value ([2]; 500 mg/kg) was 0 and the “Mortalité en 1 heure” value ([2]; 750 mg/kg) was 0. For the same molecule, the “Mortalité en 48 h.” value ([2]; 750 mg/kg) was 0, the change in vivo at 150 mg/kg [3, 4] was 80% and the “variation de température T= 2h” value ([3]; product i.p. 150 mg/kg) was “+0,7”. The “variation de température T=3h” value ([3]; product i.p. 150 mg/kg) was “+0,6” and the “variation de température T=4h” value ([3]; product i.p. 150 mg/kg) was “+0,4”.

In the case of `CC(CN(C)C)CN1c2ccccc2C2C(c3ccccc3)=NN(c3ccccc3)C2c2ccccc21` (stereo not shown) [compound 9, (méthyl-2 diméthylamino-3 propyl)-8 diphényl-1,3 tétrahydro-1,3a, 8, 12b (dibenzo [b, f]pyrazolo [3,4-d])azépine], the LD50 at 48 h [1] is reported as > 300 mg/kg, the mortality at 48 h ([1]; 150 mg/kg) is reported as 0% and the mortality at 48 h ([1]; 300 mg/kg) is reported as 0%. The “Mortalité en 1 heure” value ([2]; 150 mg/kg) was 0, the “Mortalité en 48 h.” value ([2]; 150 mg/kg) was 0 and the “Mortalité en 1 heure” value ([2]; 300 mg/kg) was 0. The “Mortalité en 48 h.” value ([2]; 300 mg/kg) was 0, the change in vivo at 50 mg/kg [3, 5] was 60% and the “variation de température T= 2h” value ([3]; product i.p. 50 mg/kg) was “+0,8”. For the same molecule, the “variation de température T=3h” value ([3]; product i.p. 50 mg/kg) was “+0,6” and the “variation de température T=4h” value ([3]; product i.p. 50 mg/kg) was “+0,1”.

In the case of `c1ccc(-c2nn(-c3ccccc3)c3c2-c2ccccc2Nc2ccccc2-3)cc1` [compound 12, diphényl-1,3 dihydro-1,8 (dibenzo[b,f]pyrazolo[3,4-d]) azépine], the LD50 at 48 h [1] is reported as > 250 mg/kg, the mortality at 48 h ([1]; 125 mg/kg) is reported as 0% and the mortality at 48 h ([1]; 250 mg/kg) is reported as 0%. The “Mortalité en 1 heure” value ([2]; 125 mg/kg) was 0, the “Mortalité en 48 h.” value ([2]; 125 mg/kg) was 0 and the “Mortalité en 1 heure” value ([2]; 250 mg/kg) was 0. The “Mortalité en 48 h.” value ([2]; 250 mg/kg) was 0, the change in vivo at 50 mg/kg [3, 5] was 10% and the “variation de température T= 2h” value ([3]; product i.p. 50 mg/kg) was “+0,4”. For the same molecule, the “variation de température T=3h” value ([3]; product i.p. 50 mg/kg) was “+0,3” and the “variation de température T=4h” value ([3]; product i.p. 50 mg/kg) was “+0,4”.

Molecule `CN(C)CCCN1c2ccccc2-c2c(-c3ccccc3)nn(-c3ccccc3)c2-c2ccccc21` [compound 14, (γ-diméthylaminopropyl)-8-diphényl-1,3 dihydro-1,8 (dibenzo [b,f]pyrazolo [3,4-d])azépine] has an LD50 at 48 h [1] of 200 mg/kg, a mortality at 48 h ([1]; 50 mg/kg) of 0% and a mortality at 48 h ([1]; 100 mg/kg) of 0%. For the same molecule, the mortality at 48 h ([1]; 250 mg/kg) was 80%, the mortality at 48 h ([1]; 500 mg/kg) was 100% and the “Mortalité en 1 heure” value ([2]; 50 mg/kg) was 0. For the same molecule, the “Mortalité en 48 h.” value ([2]; 50 mg/kg) was 0, the “Mortalité en 1 heure” value ([2]; 100 mg/kg) was 0 and the “Mortalité en 48 h.” value ([2]; 100 mg/kg) was 0. The “Mortalité en 1 heure” value ([2]; 250 mg/kg) was 2, the “Mortalité en 48 h.” value ([2]; 250 mg/kg) was 4 and the “Mortalité en 1 heure” value ([2]; 500 mg/kg) was 3. For the same molecule, the “Mortalité en 48 h.” value ([2]; 500 mg/kg) was 5, the change in vivo at 150 mg/kg [3, 4] was 40% and the “variation de température T=1h” value ([3]; product i.p. 150 mg/kg) was “+1,5”. For the same molecule, the “variation de température T= 2h” value ([3]; product i.p. 150 mg/kg) was “+0,6”, the “variation de température T=3h” value ([3]; product i.p. 150 mg/kg) was “+0,6” and the “variation de température T=4h” value ([3]; product i.p. 150 mg/kg) was “+0,1”.

With “(γ-diméthylaminopropyl)-8 phényl-1 (chloro-4' phényl)-3 tétrahydro-1,3a, 8,12b(dibenzo[b,f]pyrazolo [3,4-d])azépine [compound 11]” the “DL 50” value ([2]; souris femelles, 2880 min) was >1000 mg/kg, the Mortalité % ([2]; 250 mg/kg, 2880 min) was 0% and the “Mortalité en 1 heure” value ([2]; 250 mg/kg) was 0. For the same molecule, the “Mortalité en 48 h.” value ([2]; 250 mg/kg) was 0, the Mortalité % ([2]; 450 mg/kg, 2880 min) was 0% and the “Mortalité en 1 heure” value ([2]; 450 mg/kg) was 0. For the same molecule, the “Mortalité en 48 heures” value ([2]; 450 mg/kg) was 0, the Mortalité % ([2]; 1000 mg/kg, 2880 min) was 0% and the “Mortalité en 1 heure” value ([2]; 1000 mg/kg) was 0. For the same molecule, the “Mortalité en 48 heures” value ([2]; 1000 mg/kg) was 0, the “% d'augmentation par rapport aux témoins” value ([3]; product i.p. 150 mg/kg) was 85% and the “variation de température T= 2h” value ([3]; product i.p. 150 mg/kg) was “+0,4”. The “variation de température T=3h” value ([3]; product i.p. 150 mg/kg) was “+0,5” and the “variation de température T=4h” value ([3]; product i.p. 150 mg/kg) was “+0,7”.
